The source of these data is patent US20070293572A1, “Anti-Fatigue Composition” (priority 2004, published 2007).

This assay has as its system Sprague-Dawley male rats. Kind of assay: Treadmill Test using Young Rat (1). Conditions: oral 100 mg/kg; for Extension of maximum running time (result in words): before vs three hours after administration; for Extension of maximum running time: maximum running time three hours after vs before administration, 7 to 10 week old rats, n=20. Format: in vivo. The procedure: Treadmill Test using Young Rat (1)
Using Sprague-Dawley malerats (7 to 10 week old, n=20) anti-fatigue effects brought about by reduced coenzyme Q10 alone (about 2% of oxidized coenzyme Q10 included), carnitine alone, and combination use of reduced coenzyme Q10 and carnitine were evaluated with a treadmill. In the test, rats were run at a speed of 10 m/min using a treadmill apparatus (model NK-73-4 made by Natume Seisakusho Co., Ltd.), and the speed was increased stepwise, by 5 m/min every 3 minutes, and the time when the rats became unable to run (maximum running time) was measured.
As a substance to be tested, a 0.5% sodium carboxymethylcellulose (CMC-Na) aqueous solution of reduced coenzyme Q10 (about 2% of oxidized coenzyme Q10 included) or carnitine (reduced coenzyme Q10 or carnitine/CMC-Na=10 mg/ml) was prepared and the solution was orally administered to rats at a dose of 100 mg/kg. Rats were divided into four groups of a solvent administered group, reduced coenzyme Q10 only administered group, a carnitine only administered group, and a reduced coenzyme Q10 and carnitine combined group. The maximum running time was measured before and three hours after the administration and the time extended from the maximum running time was calculated. A 0.5% CMC-Na aqueous solution was administered to the control group.

Take `C[N+](C)(C)CC(O)CC(=O)[O-]` (stereo not shown) [Carnitine, 4-trimethylamino-3-hydroxybutyric acid]: the “Extension of maximum running time (result in words)” value is “no extension of the maximum running time” and the “Extension of maximum running time” value is on record as −0 ± 151 S.
For `COc1c(O)c(C)c(C/C=C(\C)CC/C=C(\C)CC/C=C(\C)CC/C=C(\C)CC/C=C(\C)CC/C=C(\C)CC/C=C(\C)CC/C=C(\C)CC/C=C(\C)CCC=C(C)C)c(O)c1OC` [Reduced coenzyme Q10, reduced coenzyme Q10], in that order: “no extension of the maximum running time” and −22 ± 71 S.
